Legend:
Format in all cases: cell-based
EGFR = EGFR (Homo sapiens (Human), UniProt P00533); assay: EGFR kinase inhibition, phosphotyrosine ELISA cytoblot; conditions: A431 cells
Experimental: (§1) Cells used were tumor cell lines naturally expressing high levels of EGFR (A431), VEGFR-2 (U251), and PDGFR-β (SH-SYSY). […] The reaction was stopped and cells were permeabilized by quickly removing the media from the cells and adding ice-cold Tris-buffered saline (TBS) containing 0.05% Triton X-100, protease inhibitor cocktail and tyrosine phosphatase inhibitor cocktail. The TBS solution was then removed and cells fixed to the plate for 30 min at 60° C. and further incubation in 70% ethanol for an additional 30 min. Cells were further exposed to block (TBS with 1% BSA) for 1 h, washed, and then a horseradish peroxidase (HRP)-conjugated phosphotyrosine (PY) antibody was added overnight.

VEGFR-2 = VEGFR-2 (Homo sapiens (Human), UniProt P35968); assay: VEGFR-2 kinase inhibition, phosphotyrosine ELISA cytoblot; conditions: for IC50: U251 cells, phosphotyrosine ELISA
Experimental: as §1

[1] = tested on: cellular microtubules in A-10 cells; assay: Microtubule depolymerization, indirect immunofluorescence; conditions: for effect on cellular microtubules: in words
Experimental: Evaluation of microtubule inhibition was performed using previously described methods.^22 Indirect immunofluorescence was used to evaluate the effects of the compounds on cellular microtubules as described previously.^38 Briefly, A-10 cells were treated for 18 h with vehicle (DMSO) or a compound, and microtubule effects were evaluated microscopically using β-tubulin antibody. The EC50 was calculated from 3 independent experiments and expressed as the mean±SD.

MDA-435 cells = assay: Antiproliferative SRB assay; conditions: MDA435, 48 h, read-out: IC50 ± SD in MDA-435 cells
[2] = tested on: WTβ3 cells (HeLa overexpressing βIII tubulin); assay: Antiproliferative SRB assay; conditions: for IC50: Homo sapiens, HeLa, SRB, 48 h, read-out: IC50 ± SD in WTβ3
SKOV3 cells = assay: Antiproliferative SRB assay; conditions: Homo sapiens, SK-OV-3, 48 h, read-out: IC50 ± SD in SKOV3 cells
EKVX = assay: NCI 60 cell line panel; conditions: Homo sapiens, NSCLC
HOP-62 = assay: NCI 60 cell line panel; conditions: Homo sapiens, NSCLC
NCI-H226 = assay: NCI 60 cell line panel; conditions: Homo sapiens, NSCLC
NCI-H23 = assay: NCI 60 cell line panel; conditions: Homo sapiens, NSCLC
NCI-H460 = assay: NCI 60 cell line panel; conditions: Homo sapiens, NSCLC
SF-268 = assay: NCI 60 cell line panel; conditions: Homo sapiens, CNS Cancer
SF-295 = assay: NCI 60 cell line panel; conditions: Homo sapiens, CNS Cancer
SNB-19 = assay: NCI 60 cell line panel; conditions: Homo sapiens, CNS Cancer
SNB-75 = assay: NCI 60 cell line panel; conditions: Homo sapiens, CNS Cancer
U251 = assay: NCI 60 cell line panel; conditions: Homo sapiens, U-251, CNS Cancer
IGROV1 = assay: NCI 60 cell line panel; conditions: Homo sapiens, IGROV-1, Ovarian cancer
OVCAR-3 = assay: NCI 60 cell line panel; conditions: Homo sapiens, Ovarian cancer
OVCAR-4 = assay: NCI 60 cell line panel; conditions: Homo sapiens, Ovarian cancer
OVCAR-5 = assay: NCI 60 cell line panel; conditions: Homo sapiens, Ovarian cancer
OVCAR-8 = assay: NCI 60 cell line panel; conditions: Homo sapiens, Ovarian cancer
NCI/ADR-RES = assay: NCI 60 cell line panel; conditions: Homo sapiens, Ovarian cancer
SK-OV-3 = assay: NCI 60 cell line panel; conditions: Homo sapiens, Ovarian cancer
LOX IMVI = assay: NCI 60 cell line panel; conditions: Homo sapiens, Melanoma
M14 = assay: NCI 60 cell line panel; conditions: Homo sapiens, Melanoma
MDA-MB-435 = assay: NCI 60 cell line panel; conditions: Homo sapiens, Melanoma
SK-MEL-2 = assay: NCI 60 cell line panel; conditions: Homo sapiens
SK-MEL-5 = assay: NCI 60 cell line panel; conditions: Homo sapiens, Melanoma
UACC-62 = assay: NCI 60 cell line panel; conditions: Homo sapiens, Melanoma
786-0 = assay: NCI 60 cell line panel; conditions: Homo sapiens
ACHN = assay: NCI 60 cell line panel; conditions: Homo sapiens, Renal Cancer
CAKI-1 = assay: NCI 60 cell line panel; conditions: Homo sapiens, Renal Cancer
RXF 393 = assay: NCI 60 cell line panel; conditions: Homo sapiens, Renal Cancer
SN 12C = assay: NCI 60 cell line panel; conditions: Homo sapiens, SN12C, Renal Cancer
TK-10 = assay: NCI 60 cell line panel; conditions: Homo sapiens, Renal Cancer
COLO 205 = assay: NCI 60 cell line panel; conditions: Homo sapiens, Colon Cancer
HCC-2998 = assay: NCI 60 cell line panel; conditions: Homo sapiens, Colon Cancer
HCT-116 = assay: NCI 60 cell line panel; conditions: Homo sapiens, Colon Cancer
HCT-15 = assay: NCI 60 cell line panel; conditions: Homo sapiens, Colon Cancer
KM12 = assay: NCI 60 cell line panel; conditions: Homo sapiens, Colon Cancer
SW-620 = assay: NCI 60 cell line panel; conditions: Homo sapiens, Colon Cancer
PC-3 = assay: NCI 60 cell line panel; conditions: Homo sapiens, Prostate Cancer
DU-145 = assay: NCI 60 cell line panel; conditions: Homo sapiens, Prostate Cancer
MDA-MB-231/ATCC = assay: NCI 60 cell line panel; conditions: Homo sapiens, Breast Cancer
HS 578T = assay: NCI 60 cell line panel; conditions: Homo sapiens, Breast Cancer
BT-549 = assay: NCI 60 cell line panel; conditions: Homo sapiens
CCRF-CEM = assay: NCI 60 cell line panel; conditions: Homo sapiens, Leukemia
HL-60(TB) = assay: NCI 60 cell line panel; conditions: Homo sapiens, Leukemia
K-562 = assay: NCI 60 cell line panel; conditions: Homo sapiens, K562, Leukemia
MOLT-4 = assay: NCI 60 cell line panel; conditions: Homo sapiens, Leukemia

Chain of VEGFR-2 (P35968 20-1356): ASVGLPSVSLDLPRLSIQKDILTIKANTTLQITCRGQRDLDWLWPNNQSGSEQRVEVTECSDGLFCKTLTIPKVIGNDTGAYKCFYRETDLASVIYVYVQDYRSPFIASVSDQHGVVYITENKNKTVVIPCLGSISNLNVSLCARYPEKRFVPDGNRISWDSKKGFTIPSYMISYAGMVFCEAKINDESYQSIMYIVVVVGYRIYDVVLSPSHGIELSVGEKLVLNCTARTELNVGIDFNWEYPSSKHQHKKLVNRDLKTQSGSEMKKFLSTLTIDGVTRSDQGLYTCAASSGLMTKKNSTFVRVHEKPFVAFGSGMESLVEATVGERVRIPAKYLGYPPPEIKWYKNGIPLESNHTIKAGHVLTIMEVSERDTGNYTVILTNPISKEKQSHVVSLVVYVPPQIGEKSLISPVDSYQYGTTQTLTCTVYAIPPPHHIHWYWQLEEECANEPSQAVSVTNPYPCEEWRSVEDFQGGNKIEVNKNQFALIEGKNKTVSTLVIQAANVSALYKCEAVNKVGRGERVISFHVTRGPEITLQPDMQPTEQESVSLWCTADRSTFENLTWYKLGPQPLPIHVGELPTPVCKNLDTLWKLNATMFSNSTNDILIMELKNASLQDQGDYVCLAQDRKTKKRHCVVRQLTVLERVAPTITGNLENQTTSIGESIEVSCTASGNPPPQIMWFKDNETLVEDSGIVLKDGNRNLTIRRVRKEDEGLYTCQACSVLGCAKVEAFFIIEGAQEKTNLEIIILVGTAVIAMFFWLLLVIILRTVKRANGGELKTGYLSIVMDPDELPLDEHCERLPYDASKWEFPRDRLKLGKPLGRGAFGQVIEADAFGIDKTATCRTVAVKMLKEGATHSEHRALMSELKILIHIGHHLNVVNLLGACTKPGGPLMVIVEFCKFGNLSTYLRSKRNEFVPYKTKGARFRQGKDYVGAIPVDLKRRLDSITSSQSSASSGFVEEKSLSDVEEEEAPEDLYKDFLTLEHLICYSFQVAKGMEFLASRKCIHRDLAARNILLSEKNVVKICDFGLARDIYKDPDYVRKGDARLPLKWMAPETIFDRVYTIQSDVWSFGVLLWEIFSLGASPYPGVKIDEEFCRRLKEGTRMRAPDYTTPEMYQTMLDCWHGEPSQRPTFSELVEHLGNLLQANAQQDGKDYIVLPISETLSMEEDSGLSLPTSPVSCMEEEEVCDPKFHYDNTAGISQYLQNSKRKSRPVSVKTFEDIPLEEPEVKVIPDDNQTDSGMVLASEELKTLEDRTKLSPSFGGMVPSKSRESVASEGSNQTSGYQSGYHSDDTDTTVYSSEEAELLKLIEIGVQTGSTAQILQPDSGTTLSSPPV
Chain of EGFR (P00533 25-1210): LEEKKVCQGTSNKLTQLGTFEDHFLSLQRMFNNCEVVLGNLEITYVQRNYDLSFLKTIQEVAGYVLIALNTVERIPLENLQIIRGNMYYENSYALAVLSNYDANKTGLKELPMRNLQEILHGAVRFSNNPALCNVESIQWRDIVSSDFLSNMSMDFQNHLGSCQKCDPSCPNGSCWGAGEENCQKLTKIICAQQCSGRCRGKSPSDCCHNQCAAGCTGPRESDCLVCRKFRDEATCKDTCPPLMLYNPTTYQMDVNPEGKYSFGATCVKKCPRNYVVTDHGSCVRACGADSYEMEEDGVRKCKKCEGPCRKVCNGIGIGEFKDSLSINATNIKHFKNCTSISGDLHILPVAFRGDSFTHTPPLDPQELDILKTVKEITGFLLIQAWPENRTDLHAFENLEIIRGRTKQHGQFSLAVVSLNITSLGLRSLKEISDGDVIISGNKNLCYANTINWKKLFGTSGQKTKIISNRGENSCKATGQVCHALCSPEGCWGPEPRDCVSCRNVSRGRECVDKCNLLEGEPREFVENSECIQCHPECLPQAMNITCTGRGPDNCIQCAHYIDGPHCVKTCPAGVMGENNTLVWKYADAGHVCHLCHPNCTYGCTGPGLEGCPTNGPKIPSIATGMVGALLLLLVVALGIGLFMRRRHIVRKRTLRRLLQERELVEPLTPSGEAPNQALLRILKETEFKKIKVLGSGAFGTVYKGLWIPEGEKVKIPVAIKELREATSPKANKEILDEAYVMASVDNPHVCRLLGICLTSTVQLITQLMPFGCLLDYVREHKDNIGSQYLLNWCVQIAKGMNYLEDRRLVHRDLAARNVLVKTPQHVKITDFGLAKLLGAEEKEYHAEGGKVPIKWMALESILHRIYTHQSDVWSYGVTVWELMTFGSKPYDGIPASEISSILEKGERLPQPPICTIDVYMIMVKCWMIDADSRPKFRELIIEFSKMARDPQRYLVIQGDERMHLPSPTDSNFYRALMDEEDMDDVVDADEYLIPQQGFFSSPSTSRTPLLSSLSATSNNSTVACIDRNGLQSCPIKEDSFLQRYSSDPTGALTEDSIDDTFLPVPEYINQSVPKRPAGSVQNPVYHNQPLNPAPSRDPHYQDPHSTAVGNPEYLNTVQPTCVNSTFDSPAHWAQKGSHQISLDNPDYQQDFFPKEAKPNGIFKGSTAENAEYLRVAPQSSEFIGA

SMILES: Cc1nc(N(C)c2ccc3occc3c2)c2cc(C)oc2n1 [Compound 7, N-1-benzofuran-5-yl-N,2,6-trimethylfuro[2,3-d]pyrimidin-4-amine]
- IC50 (EGFR): 0.307 ± 0.0421 µM
- IC50 (VEGFR-2): 0.0058 ± 0.00073 µM
- fold better than sunitinib, VEGFR-2 (VEGFR-2; vs sunitinib): 3 fold
- EC50/IC50 ratio ([1]; EC50 MT depolymerization / IC50 MDA-435): 28
- effect on cellular microtubules [1]: dose-dependent loss of cellular microtubules
- IC50 (MDA-435 cells): 0.133 ± 0.0017 µM
- IC50 [2]: 0.243 ± 0.0151 µM
- Rr value (relative resistance) ([2]; WTβ3 vs HeLa): 0.8
- IC50 (SKOV3 cells): 0.425 ± 0.0531 µM
- GI50 (EKVX): 0.396 µM
- GI50 (HOP-62): 0.0752 µM
- GI50 (NCI-H226): 0.217 µM
- GI50 (NCI-H23): 0.206 µM
- GI50 (NCI-H460): 0.138 µM
- GI50 (SF-268): 0.527 µM
- GI50 (SF-295): 0.0417 µM
- GI50 (SNB-19): 0.0936 µM
- GI50 (SNB-75): 0.103 µM
- GI50 (U251): 0.084 µM
- GI50 (IGROV1): 0.142 µM
- GI50 (OVCAR-3): 0.03 µM
- GI50 (OVCAR-4): 0.553 µM
- GI50 (OVCAR-5): 0.531 µM
- GI50 (OVCAR-8): 0.33 µM
- GI50 (NCI/ADR-RES): 0.0376 µM
- GI50 (SK-OV-3): 0.098 µM
- GI50 (LOX IMVI): 0.162 µM
- GI50 (M14): 0.0473 µM
- GI50 (MDA-MB-435): 0.0211 µM
- GI50 (SK-MEL-2): 0.0824 µM
- GI50 (SK-MEL-5): 0.0504 µM
- GI50 (UACC-62): 0.0571 µM
- GI50 (786-0): 1.04 µM
- GI50 (ACHN): 0.265 µM
- GI50 (CAKI-1): 0.0579 µM
- GI50 (RXF 393): 0.0572 µM
- GI50 (SN 12C): 0.611 µM
- GI50 (TK-10): 0.382 µM
- GI50 (COLO 205): 0.139 µM
- GI50 (HCC-2998): 0.185 µM
- GI50 (HCT-116): 0.0771 µM
- GI50 (HCT-15): 0.0519 µM
- GI50 (KM12): 0.0584 µM
- GI50 (SW-620): 0.0588 µM
- GI50 (PC-3): 0.183 µM
- GI50 (DU-145): 0.198 µM
- GI50 (MDA-MB-231/ATCC): 0.223 µM
- GI50 (HS 578T): 0.0517 µM
- GI50 (BT-549): 0.432 µM
- GI50 (CCRF-CEM): 0.121 µM
- GI50 (HL-60(TB)): 0.0412 µM
- GI50 (K-562): 0.0404 µM
- GI50 (MOLT-4): 0.211 µM

SMILES: COc1ccc2c(c1)CCCN2c1nc(C)nc2oc(C)cc12 [Compound 10, 4-(6-methoxy-3,4-dihydroquinolin-1(2H)-yl)-2,6-dimethylfuro[2,3-d]pyrimidine]
- IC50 (EGFR): 0.0034 ± 0.0008 µM
- IC50 (VEGFR-2): 0.0332 ± 0.005 µM
- EC50 ([1]; A-10 cells, 18 h, read-out: EC50 for MT depolymerization in A-10 cells): 0.021 µM
- effect on cellular microtubules [1]: dose-dependent loss of cellular microtubules
- IC50 (MDA-435 cells): 0.0098 ± 0.0009 µM
- IC50 [2]: 0.0091 ± 0.0018 µM
- IC50 (SKOV3 cells): 0.0129 ± 0.0012 µM
- GI50 (EKVX): < 0.01 µM
- GI50 (HOP-62): < 0.01 µM
- GI50 (NCI-H226): 0.013 µM
- GI50 (NCI-H23): < 0.01 µM
- GI50 (NCI-H460): < 0.01 µM
- GI50 (SF-268): 0.0168 µM
- GI50 (SF-295): < 0.01 µM
- GI50 (SNB-19): < 0.01 µM
- GI50 (SNB-75): < 0.01 µM
- GI50 (U251): < 0.01 µM
- GI50 (IGROV1): < 0.01 µM
- GI50 (OVCAR-3): < 0.01 µM
- GI50 (OVCAR-4): 0.051 µM
- GI50 (OVCAR-5): 0.043 µM
- GI50 (OVCAR-8): < 0.01 µM
- GI50 (NCI/ADR-RES): < 0.01 µM
- GI50 (SK-OV-3): < 0.01 µM
- GI50 (LOX IMVI): < 0.01 µM
- GI50 (M14): < 0.01 µM
- GI50 (MDA-MB-435): < 0.01 µM
- GI50 (SK-MEL-2): < 0.01 µM
- GI50 (SK-MEL-5): < 0.01 µM
- GI50 (UACC-62): < 0.01 µM
- GI50 (786-0): < 0.01 µM
- GI50 (ACHN): < 0.01 µM
- GI50 (CAKI-1): < 0.01 µM
- GI50 (RXF 393): < 0.01 µM
- GI50 (SN 12C): < 0.01 µM
- GI50 (TK-10): < 0.01 µM
- GI50 (COLO 205): < 0.01 µM
- GI50 (HCC-2998): 0.012 µM
- GI50 (HCT-116): < 0.01 µM
- GI50 (HCT-15): < 0.01 µM
- GI50 (KM12): < 0.01 µM
- GI50 (SW-620): < 0.01 µM
- GI50 (PC-3): < 0.01 µM
- GI50 (DU-145): < 0.01 µM
- GI50 (MDA-MB-231/ATCC): 0.0114 µM
- GI50 (HS 578T): < 0.01 µM
- GI50 (BT-549): < 0.01 µM
- GI50 (CCRF-CEM): < 0.01 µM
- GI50 (HL-60(TB)): < 0.01 µM
- GI50 (K-562): < 0.01 µM
- GI50 (MOLT-4): 0.015 µM

Reference: patent publication US10189853B2, “Conformationally restricted 4-substituted-2,6-dimethylfuro[2,3-d]pyrimidines as anti-tumor agents” (DUQUESNE UNIVERSITY OF THE HOLY SPIRIT, priority 2014, dated 2019)
